Patent publication US20150307520A1, “NOVEL HETEROARYL AND HETEROCYCLE COMPOUNDS, COMPOSITIONS AND METHODS THEREOF” (HUTCHISON MEDIPHARMA LIMITED, priority 2012, published 2015)

How the values were obtained:
Format in all cases: biochemical
p110β/p85α = p110β/p85α (Homo sapiens, UniProt P42338); test: Transcreener KINASE Assay, kinase inhibition of p110β/p85α; conditions: for PI3Kβ IH % @ 1 uM: 1 uM test compound; for IC50: read-out: PI3Kβ IC50
In short: (§1)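 ADP production was read by fluorescence polarization immunoassay (60 min detection step) after an 80 min room-temperature reaction of p110/p85α enzyme, compound in 2% DMSO, and PIP2/ATP solution (30 uM/10 uM as added) in HEPES buffer with MgCl2 and DTT. IC50s came from inhibition versus the DMSO control.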

p110γ = p110γ (Homo sapiens, UniProt P48736); test: Transcreener KINASE Assay, kinase inhibition of p110γ; conditions: for PI3Kγ IH % @ 1 uM: 1 uM test compound; for IC50: read-out: PI3Kγ IC50
In short: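 FP read-out: far-red competitive immunoassay sensing ADP produced by recombinant p110/p85 or p110γ enzyme. Reaction 80 min RT, then detection mix 60 min RT. IC50 from curve fit.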

p110δ/p85α = p110δ/p85α (Homo sapiens, UniProt O00329); test: Transcreener KINASE Assay, kinase inhibition of p110δ/p85α; conditions: for PI3Kδ IH % @ 1 uM: 1 uM test compound; for IC50: read-out: PI3Kδ IC50
In short: as §1

Sequence of p110γ (P48736 whole entry): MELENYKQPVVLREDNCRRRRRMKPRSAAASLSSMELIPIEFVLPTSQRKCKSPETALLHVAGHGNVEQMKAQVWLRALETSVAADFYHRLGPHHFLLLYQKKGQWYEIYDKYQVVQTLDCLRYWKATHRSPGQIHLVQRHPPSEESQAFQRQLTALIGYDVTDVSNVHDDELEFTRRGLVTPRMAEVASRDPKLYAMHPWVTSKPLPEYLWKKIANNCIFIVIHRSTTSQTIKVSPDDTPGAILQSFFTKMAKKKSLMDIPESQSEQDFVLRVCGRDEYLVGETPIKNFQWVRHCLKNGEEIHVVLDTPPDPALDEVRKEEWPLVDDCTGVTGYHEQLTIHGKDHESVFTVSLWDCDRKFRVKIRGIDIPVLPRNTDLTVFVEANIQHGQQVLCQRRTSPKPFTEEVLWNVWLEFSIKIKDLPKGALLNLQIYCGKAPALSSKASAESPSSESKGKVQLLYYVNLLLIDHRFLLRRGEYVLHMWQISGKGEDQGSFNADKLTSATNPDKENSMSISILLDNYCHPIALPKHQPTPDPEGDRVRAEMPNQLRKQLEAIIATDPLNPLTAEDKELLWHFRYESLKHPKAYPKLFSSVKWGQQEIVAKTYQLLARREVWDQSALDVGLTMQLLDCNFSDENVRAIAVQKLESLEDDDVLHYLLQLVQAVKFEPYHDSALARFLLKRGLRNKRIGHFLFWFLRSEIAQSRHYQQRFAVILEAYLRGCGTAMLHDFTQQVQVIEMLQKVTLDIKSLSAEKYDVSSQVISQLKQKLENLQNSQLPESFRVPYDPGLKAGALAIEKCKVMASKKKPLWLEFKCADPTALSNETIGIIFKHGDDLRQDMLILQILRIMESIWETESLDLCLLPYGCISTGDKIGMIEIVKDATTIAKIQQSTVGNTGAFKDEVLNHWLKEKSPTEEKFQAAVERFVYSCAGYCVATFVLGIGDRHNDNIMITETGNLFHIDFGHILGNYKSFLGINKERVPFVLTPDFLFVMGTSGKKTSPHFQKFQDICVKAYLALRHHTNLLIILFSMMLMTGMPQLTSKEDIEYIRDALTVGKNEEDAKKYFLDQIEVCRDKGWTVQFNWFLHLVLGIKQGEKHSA
Sequence of p110δ/p85α (O00329 whole entry): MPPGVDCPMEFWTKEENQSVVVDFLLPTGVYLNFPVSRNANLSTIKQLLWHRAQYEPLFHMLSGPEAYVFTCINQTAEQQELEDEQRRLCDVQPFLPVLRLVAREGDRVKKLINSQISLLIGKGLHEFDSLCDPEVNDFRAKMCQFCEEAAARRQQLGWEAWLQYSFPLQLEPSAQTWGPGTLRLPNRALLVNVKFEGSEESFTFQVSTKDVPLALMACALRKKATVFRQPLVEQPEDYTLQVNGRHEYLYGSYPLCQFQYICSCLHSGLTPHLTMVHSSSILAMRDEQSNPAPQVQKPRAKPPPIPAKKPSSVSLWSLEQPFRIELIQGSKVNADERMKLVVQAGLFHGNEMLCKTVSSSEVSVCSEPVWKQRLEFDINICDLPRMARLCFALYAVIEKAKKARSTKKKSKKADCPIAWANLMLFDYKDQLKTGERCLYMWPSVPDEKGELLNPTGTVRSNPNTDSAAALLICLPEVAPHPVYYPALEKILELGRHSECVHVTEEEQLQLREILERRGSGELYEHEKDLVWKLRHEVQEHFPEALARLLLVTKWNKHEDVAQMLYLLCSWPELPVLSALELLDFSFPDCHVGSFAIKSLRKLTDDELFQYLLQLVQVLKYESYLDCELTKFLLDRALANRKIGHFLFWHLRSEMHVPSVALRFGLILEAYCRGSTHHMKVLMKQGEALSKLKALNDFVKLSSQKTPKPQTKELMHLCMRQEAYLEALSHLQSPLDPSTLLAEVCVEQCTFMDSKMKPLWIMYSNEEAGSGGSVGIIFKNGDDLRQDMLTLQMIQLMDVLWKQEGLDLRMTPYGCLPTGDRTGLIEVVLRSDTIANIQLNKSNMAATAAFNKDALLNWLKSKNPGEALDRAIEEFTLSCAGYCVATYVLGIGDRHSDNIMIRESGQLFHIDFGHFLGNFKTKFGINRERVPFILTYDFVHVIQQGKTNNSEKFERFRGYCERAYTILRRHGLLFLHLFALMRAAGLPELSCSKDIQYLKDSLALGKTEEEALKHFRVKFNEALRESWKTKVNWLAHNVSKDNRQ
Sequence of p110δ/p85α (P27986 whole entry partner): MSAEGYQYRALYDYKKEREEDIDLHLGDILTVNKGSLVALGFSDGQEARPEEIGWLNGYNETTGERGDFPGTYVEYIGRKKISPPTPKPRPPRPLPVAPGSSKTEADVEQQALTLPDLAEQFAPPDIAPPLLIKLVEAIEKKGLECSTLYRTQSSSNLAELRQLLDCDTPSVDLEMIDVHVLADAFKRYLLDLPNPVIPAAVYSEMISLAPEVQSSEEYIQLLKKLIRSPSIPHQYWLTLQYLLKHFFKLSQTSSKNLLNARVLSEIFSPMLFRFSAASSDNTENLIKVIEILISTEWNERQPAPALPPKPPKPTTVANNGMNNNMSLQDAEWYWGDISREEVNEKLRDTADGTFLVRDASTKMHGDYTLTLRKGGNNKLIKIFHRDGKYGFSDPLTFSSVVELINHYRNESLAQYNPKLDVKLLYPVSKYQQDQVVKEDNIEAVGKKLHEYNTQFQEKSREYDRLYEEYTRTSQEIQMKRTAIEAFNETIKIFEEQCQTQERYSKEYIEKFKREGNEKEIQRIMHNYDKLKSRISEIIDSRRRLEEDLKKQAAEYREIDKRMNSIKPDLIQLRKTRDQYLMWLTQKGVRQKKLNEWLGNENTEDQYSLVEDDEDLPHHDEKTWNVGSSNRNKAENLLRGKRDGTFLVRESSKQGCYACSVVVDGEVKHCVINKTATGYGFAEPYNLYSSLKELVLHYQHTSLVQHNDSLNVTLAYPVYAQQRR
Sequence of p110β/p85α (P42338 whole entry): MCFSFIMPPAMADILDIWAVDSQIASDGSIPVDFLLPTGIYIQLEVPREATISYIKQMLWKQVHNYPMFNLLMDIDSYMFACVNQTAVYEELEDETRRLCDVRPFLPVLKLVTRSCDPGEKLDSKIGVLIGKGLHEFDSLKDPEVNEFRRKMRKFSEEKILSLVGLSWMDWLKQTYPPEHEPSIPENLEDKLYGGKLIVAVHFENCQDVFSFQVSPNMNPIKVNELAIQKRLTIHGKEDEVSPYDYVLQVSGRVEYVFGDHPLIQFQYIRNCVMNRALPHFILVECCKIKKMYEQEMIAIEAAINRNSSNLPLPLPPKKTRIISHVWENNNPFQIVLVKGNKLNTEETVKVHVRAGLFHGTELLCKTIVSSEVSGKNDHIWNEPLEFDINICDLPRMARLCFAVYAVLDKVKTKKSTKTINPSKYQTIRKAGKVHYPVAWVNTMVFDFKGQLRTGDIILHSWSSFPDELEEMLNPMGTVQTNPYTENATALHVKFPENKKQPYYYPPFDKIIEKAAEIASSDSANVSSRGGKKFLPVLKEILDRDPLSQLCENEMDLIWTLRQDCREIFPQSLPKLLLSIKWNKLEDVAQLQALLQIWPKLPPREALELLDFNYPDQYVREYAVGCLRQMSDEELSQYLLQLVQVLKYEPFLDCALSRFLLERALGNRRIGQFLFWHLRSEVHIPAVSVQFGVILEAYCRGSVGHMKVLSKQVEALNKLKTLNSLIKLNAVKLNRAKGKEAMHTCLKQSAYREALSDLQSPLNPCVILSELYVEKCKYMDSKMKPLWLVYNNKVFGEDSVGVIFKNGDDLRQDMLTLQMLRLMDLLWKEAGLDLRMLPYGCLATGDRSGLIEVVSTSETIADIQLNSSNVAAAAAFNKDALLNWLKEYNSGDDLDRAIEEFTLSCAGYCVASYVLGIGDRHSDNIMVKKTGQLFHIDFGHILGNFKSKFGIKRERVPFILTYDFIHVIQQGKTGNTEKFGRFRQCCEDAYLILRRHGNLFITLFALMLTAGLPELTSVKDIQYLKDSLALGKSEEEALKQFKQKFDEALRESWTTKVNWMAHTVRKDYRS
Sequence of p110β/p85α (P27986 2-724 partner): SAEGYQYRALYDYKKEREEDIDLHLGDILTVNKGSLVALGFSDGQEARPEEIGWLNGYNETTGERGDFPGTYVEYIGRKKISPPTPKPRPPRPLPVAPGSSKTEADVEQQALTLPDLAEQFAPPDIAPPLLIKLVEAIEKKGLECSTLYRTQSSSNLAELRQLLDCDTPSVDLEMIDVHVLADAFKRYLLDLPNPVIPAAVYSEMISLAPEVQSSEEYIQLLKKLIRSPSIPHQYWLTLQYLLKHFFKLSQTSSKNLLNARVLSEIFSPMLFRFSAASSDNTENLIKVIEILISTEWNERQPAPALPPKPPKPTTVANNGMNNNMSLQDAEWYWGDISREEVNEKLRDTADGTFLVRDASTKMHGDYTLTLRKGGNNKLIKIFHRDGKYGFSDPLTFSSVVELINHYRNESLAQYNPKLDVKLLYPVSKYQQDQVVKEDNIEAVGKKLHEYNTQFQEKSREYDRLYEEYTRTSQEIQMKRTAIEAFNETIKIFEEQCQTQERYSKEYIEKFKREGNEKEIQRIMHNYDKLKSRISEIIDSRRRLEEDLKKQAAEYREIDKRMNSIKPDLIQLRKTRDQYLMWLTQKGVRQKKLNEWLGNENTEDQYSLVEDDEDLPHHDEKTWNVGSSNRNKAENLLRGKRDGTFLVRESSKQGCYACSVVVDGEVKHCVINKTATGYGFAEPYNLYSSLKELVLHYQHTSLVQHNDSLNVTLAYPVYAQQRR

| SMILES | PI3Kβ IH % @ 1 uM (p110β/p85α) [%] | PI3Kγ IH % @ 1 uM (p110γ) [%] | PI3Kδ IH % @ 1 uM (p110δ/p85α) [%] | IC50 (p110δ/p85α) [nM] | IC50 (p110γ) [nM] | IC50 (p110β/p85α) [nM] |
| --- | --- | --- | --- | --- | --- | --- |
| CCc1ccn2nc([C@@H]3CCN3c3ncnc4[nH]cc(C#N)c34)n(-c3ccccc3)c(=O)c12 [Compound 133, (S)-4-(2-(5-ethyl-4-oxo-3-phenyl-3,4-dihydropyrrolo[2,1-f][1,2,4]triazin-2-yl)azetidin-1-yl)-7H-pyrrolo[2,3-d]pyrimidine-5-carbonitrile] | 11.5 | 65.9 | 88.1 | 172 | – | – |
| Nc1nc(N2CC[C@H]2c2nn3ccc(Br)c3c(=O)n2-c2ccccc2)n2nccc2n1 [Compound 135] | 20.6 | >100 | 74.5 | 51 | 12 | – |
| NC(=O)c1ccn2nc([C@@H]3CCCN3c3ncnc4[nH]cnc34)n(-c3ccccc3)c(=O)c12 [Compound 139, (S)-2-(1-(9H-purin-6-yl)pyrrolidin-2-yl)-4-oxo-3-phenyl-3,4-dihydropyrrolo[2,1-f][1,2,4]triazine-5-carboxamide] | 18.0 | 46.5 | 64.8 | – | – | – |
| N#Cc1c[nH]c2ncnc(N3CCC[C@H]3c3nn4ccc(C(N)=O)c4c(=O)n3-c3ccccc3)c12 [Compound 140] | 15.0 | 82.3 | >100 | 51 | 116 | – |
| COCc1ccn2nc([C@@H]3CCCN3c3ncnc4[nH]cnc34)n(-c3ccccc3)c(=O)c12 [Compound 149] | −35.9 | 74.2 | 95.9 | 52 | 348 | – |
| COCc1ccn2nc([C@@H]3CCCN3c3ncnc4[nH]cc(C#N)c34)n(-c3ccccc3)c(=O)c12 [Compound 150] | 31.5 | 92.6 | >100 | 3 | 92 | – |
| N#Cc1c[nH]c2ncnc(N3CCOCC3c3nn4ccc(Cl)c4c(=O)n3-c3ccccc3)c12 (stereo not shown) [Compound 152] | 54.4 | 79.3 | 99.2 | 5 | 287 | – |
| N#Cc1c[nH]c2ncnc(N3CCC[C@H]3c3nn4ccc(Cl)c4c(=O)n3Cc3ncccn3)c12 [Compound 155] | 56.0 | 94.9 | 96.4 | 23 | 133 | – |
| O=c1c2c(Cl)ccn2nc([C@@H]2CCCN2c2ncnc3[nH]cnc23)n1Cc1ncccn1 [Compound 156] | 42.2 | 64.0 | 83.4 | 169 | – | – |
| O=c1c2c(Cl)ccn2nc([C@@H]2C[C@H](F)CN2c2ncnc3[nH]cnc23)n1Cc1ccccn1 [Compound 157] | 39.5 | 79.9 | >100 | 21 | 280 | – |
| N#Cc1c[nH]c2ncnc(N3C[C@@H](F)C[C@H]3c3nn4ccc(Cl)c4c(=O)n3Cc3ccccn3)c12 [Compound 158] | 71.1 | >100 | >100 | 6 | 46 | 473 |
| N#Cc1c[nH]c2ncnc(N3CC(F)(F)C[C@H]3c3nn4ccc(Cl)c4c(=O)n3Cc3ccccn3)c12 [Compound 160] | 11.4 | 34.3 | 80.2 | 140 | – | – |
| O=c1c2c(Cl)ccn2nc([C@@H]2CC(F)(F)CN2c2ncnc3[nH]cnc23)n1Cc1ncccn1 [Compound 161] | 15.3 | −8.4 | 45.7 | – | – | – |
| N#Cc1c[nH]c2ncnc(N3CCC[C@H]3c3nn4ccc(Cl)c4c(=O)n3C3CCC3)c12 [Compound 162] | 83.2 | 97.7 | >100 | 1 | 6 | 137 |
| NC(=O)c1c[nH]c2ncnc(N3CC[C@H]3c3nn4ccc(Cl)c4c(=O)n3-c3ccccc3)c12 [Compound 163] | −3.2 | 0.6 | 31.3 | – | – | – |
| O=C(c1c[nH]c2ncnc(N3CCC[C@H]3c3nn4ccc(Cl)c4c(=O)n3-c3ccccc3)c12)N1CCOCC1 [Compound 164] | 22.9 | 64.9 | 62.3 | – | – | – |
| O=c1c2c(Cl)ccn2nc([C@@H]2CCN2c2ncnc3[nH]cc(C#CCO)c23)n1-c1ccccc1 [Compound 165] | 71.3 | >100 | >100 | 1 | 2 | 400 |
| Nc1ccc(-c2n[nH]c3ncnc(N4CCC[C@H]4c4nn5ccc(Cl)c5c(=O)n4-c4ccccc4)c23)cn1 [Compound 167] | 42.3 | >100 | >100 | 5 | 21 | – |

Continued, values first:

| PI3Kβ IH % @ 1 uM (p110β/p85α) [%] | PI3Kγ IH % @ 1 uM (p110γ) [%] | PI3Kδ IH % @ 1 uM (p110δ/p85α) [%] | IC50 (p110δ/p85α) [nM] | IC50 (p110γ) [nM] | IC50 (p110β/p85α) [nM] | SMILES |
| --- | --- | --- | --- | --- | --- | --- |
| 59.2 | >100 | >100 | 5 | 30 | – | Nc1nc(N2CCC[C@H]2c2nn3ccc(Cl)c3c(=O)n2-c2ccccc2)n2nccc2n1 [Compound 134, (S)-2-(1-(2-aminopyrazolo[1,5-a][1,3,5]triazin-4-yl)pyrrolidin-2-yl)-5-chloro-3-phenylpyrrolo[2,1-f][1,2,4]triazin-4(3H)-one] |
| 27.6 | 95.0 | 83.5 | 124 | 42 | – | Nc1nc(N2CC(F)(F)C[C@H]2c2nn3ccc(Cl)c3c(=O)n2-c2ccccc2)n2nccc2n1 [Compound 136] |
| 35.9 | 89.3 | 96.8 | 36 | 13 | – | Nc1nc(N2CC[C@H]2c2nn3ccc(Cl)c3c(=O)n2-c2ccccc2)n2nccc2n1 [Compound 137] |
| 42.3 | 95.0 | >100 | 12 | 75 | – | Nc1ncnc(N2CCC[C@H]2c2nn3ccc(Cl)c3c(=O)n2-c2ccccc2)n1 [Compound 138, (S)-2-(1-(4-amino-1,3,5-triazin-2-yl)pyrrolidin-2-yl)-5-chloro-3-phenylpyrrolo[2,1-f][1,2,4]triazin-4(3H)-one] |
| 28.2 | 92.3 | >100 | 5 | 151 | – | N#Cc1c(N)ncnc1N1CC(F)(F)C[C@H]1c1nn2ccc(Cl)c2c(=O)n1-c1ccccc1 [Compound 141] |
| 13.5 | 75.5 | 81.1 | 298 | 390 | – | O=c1c2c(Cl)ccn2nc([C@@H]2CCN2c2ncnc3[nH]ccc23)n1-c1ccccc1 [Compound 142] |
| 63.0 | 82.3 | 88.8 | 70 | 95 | – | CS(=O)(=O)c1c[nH]c2ncnc(N3CC[C@H]3c3nn4ccc(Cl)c4c(=O)n3-c3ccccc3)c12 [Compound 143] |
| 62.5 | 94.1 | >100 | 5 | 44 | – | CS(=O)(=O)c1c[nH]c2ncnc(N3CCC[C@H]3c3nn4ccc(Cl)c4c(=O)n3-c3ccccc3)c12 [Compound 144] |
| 55.5 | >100 | >100 | 2 | 9 | – | O=c1c2c(Cl)ccn2nc([C@@H]2CCCN2c2ncnc3[nH]ccc23)n1-c1ccccc1 [Compound 145] |
| 77.9 | 97.3 | >100 | 1 | 9 | 120 | O=c1c2c(Cl)ccn2nc([C@@H]2CCCN2c2nc(F)nc3[nH]cnc23)n1-c1ccccc1 [Compound 146] |
| 65.3 | 94.3 | >100 | 1 | 4 | – | O=c1c2c(Cl)ccn2nc([C@@H]2CCCN2c2ncnc3[nH]cc(F)c23)n1-c1ccccc1 [Compound 147] |
| 19.5 | 83.0 | 86.7 | 44 | 173 | – | O=c1c2c(Cl)ccn2nc([C@@H]2CCN2c2ncnc3[nH]cc(F)c23)n1-c1ccccc1 [Compound 148] |
| 11.4 | 22.8 | 52.4 | – | – | – | COCc1ccn2nc([C@@H]3CCCN3c3nc(N)ncc3C(F)(F)F)n(-c3ccccc3)c(=O)c12 [Compound 151] |
| 56.5 | 85.8 | >100 | – | – | – | O=c1c2c(Cl)ccn2nc([C@@H]2COCCN2c2ncnc3[nH]cnc23)n1-c1ccccc1 [Compound 153] |
| 56.7 | 93.7 | 97.6 | 3 | 40 | – | CC(Nc1nc(N)ncc1C(F)(F)F)c1cc2ncc(Cl)n2c(=O)n1-c1ccccc1 (stereo not shown) [Compound 154] |
| >100 | >100 | 97.2 | 1 | 2 | 17 | Nc1ncc(-c2n[nH]c3ncnc(N4CCC[C@H]4c4nn5ccc(Cl)c5c(=O)n4-c4ccccc4)c23)cn1 [Compound 166] |
